In PubChem BioAssay AID248 (DTP/NCI, 2004):
Values joined by “and” are separate entries in the source; they are usually repeats but may differ in a detail not shown here. Equal entries are not always repeated. Inconclusive results and toxic doses are left out.

Tested on: L1210 leukemia ip in BDF1 mice, survival T/C
Experiment: NCI In Vivo Anticancer Drug Screen. Data for tumor model L1210 Leukemia (intraperitoneal) in B6D2F1 (BDF1) mice
Settings: endpoint: mean survival time, higher = longer survival
Method in brief: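 Ratio derived from survival: compound-dosed mice over vehicle-dosed mice, all bearing a transplantable tumor.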

[1] = dose: 25.0 mg/kg/injection, schedule: Q04DX003 (ip), vehicle: Klucel (hydroxypropylcellulose) (HPC)
[2] = dose: 50.0 mg/kg/injection, schedule: Q04DX003 (ip), vehicle: Klucel (hydroxypropylcellulose) (HPC)
[3] = dose: 100.0 mg/kg/injection, schedule: Q01DX009 (ip), vehicle: Klucel (hydroxypropylcellulose) (HPC)
[4] = dose: 100.0 mg/kg/injection, schedule: Q04DX003 (ip), vehicle: Klucel (hydroxypropylcellulose) (HPC)
[5] = dose: 200.0 mg/kg/injection, schedule: Q01DX009 (ip), vehicle: Klucel (hydroxypropylcellulose) (HPC)
[6] = dose: 50.0 mg/kg/injection, schedule: Q01DX001 (ip), vehicle: Klucel (hydroxypropylcellulose) (HPC)
[7] = dose: 100.0 mg/kg/injection, schedule: Q01DX001 (ip), vehicle: Klucel (hydroxypropylcellulose) (HPC)
[8] = dose: 50.0 mg/kg/injection, schedule: Q01DX009 (ip), vehicle: saline with Tween-80
[9] = dose: 100.0 mg/kg/injection, schedule: Q01DX001 (ip), vehicle: saline
[10] = dose: 200.0 mg/kg/injection, schedule: Q01DX001 (ip), vehicle: saline
[11] = dose: 400.0 mg/kg/injection, schedule: Q01DX001 (ip), vehicle: saline
[12] = dose: 100.0 mg/kg/injection, schedule: Q04DX002 (ip), vehicle: Klucel (hydroxypropylcellulose) (HPC)
[13] = dose: 200.0 mg/kg/injection, schedule: Q04DX002 (ip), vehicle: Klucel (hydroxypropylcellulose) (HPC)
[14] = dose: 400.0 mg/kg/injection, schedule: Q04DX002 (ip), vehicle: Klucel (hydroxypropylcellulose) (HPC)

O=C(NC(CS)C(=O)O)OCc1ccccc1 (stereo not drawn)
T/C [1]: 97 % of control | T/C (dose: 50.0 mg/kg/injection, schedule: Q01DX009 (ip), vehicle: Klucel (hydroxypropylcellulose) (HPC)): 101 % of control | T/C [2]: 98 % of control | T/C [3]: 101 % of control | T/C [4]: 106 % of control and 113 % of control | T/C [5]: 98 % of control

CC1(C)Cc2cccc(C=C(C#N)C#N)c2O1
T/C [4]: 106 % of control | T/C (dose: 200.0 mg/kg/injection, schedule: Q04DX003 (ip), vehicle: Klucel (hydroxypropylcellulose) (HPC)): 97 % of control | T/C (dose: 400.0 mg/kg/injection, schedule: Q04DX003 (ip), vehicle: Klucel (hydroxypropylcellulose) (HPC)): 113 % of control

COc1ccc(-n2c(O)c(N=Nc3ccccc3OC)c(=O)n(-c3ccccc3)c2=S)cc1
T/C [6]: 94 % of control | T/C [7]: 92 % of control | T/C (dose: 200.0 mg/kg/injection, schedule: Q01DX001 (ip), vehicle: Klucel (hydroxypropylcellulose) (HPC)): 92 % of control

CC(C)NNC(C)Cc1ccccc1 (stereo not drawn)
T/C [1]: 104 % of control | T/C [2]: 102 % of control | T/C [4]: 98 % of control

CC(=O)Nc1ccc([N+](=O)[O-])c(NC(C)=O)n1
T/C [3]: 103 % of control | T/C (dose: 100.0 mg/kg/injection, schedule: Q04DX003 (ip), vehicle: saline with Tween-80): 101 % of control | T/C [5]: 100 % of control | T/C (dose: 200.0 mg/kg/injection, schedule: Q04DX003 (ip), vehicle: saline with Tween-80): 93 % of control | T/C (dose: 400.0 mg/kg/injection, schedule: Q01DX009 (ip), vehicle: Klucel (hydroxypropylcellulose) (HPC)): 97 % of control | T/C (dose: 400.0 mg/kg/injection, schedule: Q04DX003 (ip), vehicle: saline with Tween-80): 112 % of control

COC1C(c2ccccc2)NC(=O)C(Br)(C#N)C1c1ccccc1 (stereo not drawn)
T/C (dose: 12.5 mg/kg/injection, schedule: Q01DX009 (ip), vehicle: saline with Tween-80): 86 % of control | T/C (dose: 25.0 mg/kg/injection, schedule: Q01DX009 (ip), vehicle: saline with Tween-80): 86 % of control | T/C [8]: 86 % of control

O=C(Nc1cccc(F)c1)OCc1ccco1
T/C (dose: 100.0 mg/kg/injection, schedule: Q01DX009 (sc), vehicle: olive oil, sesame oil, peanut oil): 95 % of control | T/C (dose: 200.0 mg/kg/injection, schedule: Q01DX009 (sc), vehicle: olive oil, sesame oil, peanut oil): 96 % of control | T/C (dose: 400.0 mg/kg/injection, schedule: Q01DX009 (sc), vehicle: olive oil, sesame oil, peanut oil): 95 % of control

CCCC1(CCC)OOC(CCC)(CCC)OO1
T/C [8]: 96 % of control | T/C (dose: 100.0 mg/kg/injection, schedule: Q01DX009 (ip), vehicle: saline with Tween-80): 96 % of control | T/C (dose: 200.0 mg/kg/injection, schedule: Q01DX009 (ip), vehicle: saline with Tween-80): 110 % of control

CCCCCCCSc1ncnc2c1ncn2CO
T/C (dose: 50.0 mg/kg/injection, schedule: Q01DX009 (ip), vehicle: saline): 104 % of control | T/C (dose: 80.0 mg/kg/injection, schedule: Q01DX009 (ip), vehicle: saline): 107 % of control | T/C [9]: 101 % of control | T/C (dose: 117.0 mg/kg/injection, schedule: Q01DX009 (ip), vehicle: other): 114 % of control | T/C (dose: 120.0 mg/kg/injection, schedule: Q01DX009 (ip), vehicle: saline): 104 % of control | T/C [10]: 95 % of control | T/C [11]: 115 % of control | T/C (dose: 400.0 mg/kg/injection, schedule: Q01DX009 (ip), vehicle: saline): 164 % of control

CCOP(=S)(OCC)Oc1ccc(Sc2ccc(OP(=S)(OCC)OCC)cc2)cc1
T/C [9]: 101 % of control | T/C [10]: 101 % of control | T/C [11]: 107 % of control

COc1ccc(C(=O)C(=O)c2ccc(OC)cc2)cc1
T/C [12]: 98 % of control | T/C [13]: 98 % of control | T/C [14]: 95 % of control

CC(C)(Cl)/N=N/C(C)(C)Cl
T/C (dose: 25.0 mg/kg/injection, schedule: Q01DX001 (ip), vehicle: Klucel (hydroxypropylcellulose) (HPC)): 99 % of control | T/C [1]: 98 % of control | T/C [6]: 92 % of control | T/C [2]: 97 % of control | T/C [7]: 94 % of control and 95 % of control | T/C [4]: 98 % of control

COC(=O)c1cccc(Cl)c1-c1c(Cl)cccc1C(=O)OC
T/C [12]: 96 % of control | T/C [13]: 108 % of control | T/C [14]: 92 % of control
